Data on nine molecules can be found in patent US20030143670A1, “DNA encoding SNORF44 receptor” (priority 1999, published 2003).

“Also recorded” adds a separate entry of the source. Where no end group is shown, it is not given here.

The subject of test [1] is human SNORF44. Kind of test: Calcium-activated Cl- currents in Xenopus laevis oocytes (voltage clamp). Format: cell-based. Conditions: control (uninjected) oocytes not expressing hSNORF44. On the procedure:
(§1) Oocytes were harvested from Xenopus laevis and injected with mRNA transcripts as previously described (Quick and Lester, 1994; Smith et al.,1997). Synthetic, full-length RNA transcripts for human SNORF44 were produced by digestion of the plasmid BN16 with HINDIII followed by transcription with T7 RNA Polymerase (“Message Machine”, Ambion). Oocytes were injected with 15 ng hSN44 receptors synthetic RNA and incubated for 3-4 days at 17 degrees. Dual electrode voltage clamp (Axon Instruments Inc.) was performed using 3 M KCl-filled glass microelectrodes having resistances of 1-2 Mohm. Unless otherwise specified, oocytes were voltage clamped at a holding potential of −80 mV. During recordings, oocytes were bathed in continuously flowing (1-3 ml/min) medium containing 96 mM NaCl, 2 mM KCl, 1.8 mM CaCl2, 1 mM MgCl2, and 5 mM HEPES, pH 7.5 (ND96 Buffer). Drugs were applied by local perfusion from a […] glass capillary tube fixed at a distance of 0.5 mm from the oocyte.
(§2) Heterologous expression of GPCRs in Xenopus oocytes has been widely used to determine the identity of signaling pathways activated by agonist stimulation (Gundersen et al., 1983; Takahashi et al., 1987). Activation of the phospholipase C (PLC) pathway is assayed by applying test compound in ND96 solution to oocytes previously injected with mRNA for the mammalian receptor and observing inward currents at a holding potential of −80 mV. The appearance of currents that reverse at −25 mV and display other properties of the Ca^++-activated Cl^− (chloride) channel is indicative of mammalian receptor-activation of PLC and release of IP3 and intracellular Ca^++.

In test [2] the target is T1, hSNORF44 (Homo sapiens, UniProt Q96P65).
T1 sequence (Q96P65 1-431): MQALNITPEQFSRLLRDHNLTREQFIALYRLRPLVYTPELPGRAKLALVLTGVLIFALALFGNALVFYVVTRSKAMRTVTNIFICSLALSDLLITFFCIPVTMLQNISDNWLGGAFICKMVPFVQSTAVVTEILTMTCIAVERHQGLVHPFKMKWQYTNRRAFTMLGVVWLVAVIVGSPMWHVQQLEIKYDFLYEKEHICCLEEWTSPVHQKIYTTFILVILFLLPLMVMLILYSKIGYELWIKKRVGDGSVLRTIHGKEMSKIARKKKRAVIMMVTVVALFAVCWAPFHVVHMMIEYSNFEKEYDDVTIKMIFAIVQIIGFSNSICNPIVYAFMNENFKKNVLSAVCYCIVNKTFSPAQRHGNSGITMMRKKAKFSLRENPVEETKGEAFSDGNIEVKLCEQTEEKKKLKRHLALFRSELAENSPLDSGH
The description is as above. Format: cell-based. Set-up: Synthetic, full-length RNA transcripts for human SNORF44 were produced by digestion of the plasmid BN16; expressed in transfected cells; host or cells: Xenopus laevis oocytes injected with synthetic RNA. The following applies: oocytes injected with SNORF44 mRNA; 10 μM peptide; holding potential -80 mV. The protocol: as §1, §2

Test [3] addresses T1, hSNORF44. Kind of test: Intracellular Ca2+ release (FLIPR) in transiently transfected COS-7 cells. Set-up: The entire coding region was then amplified by PCR from human spinal cord cDNA and subcloned into pcDNA3.1(−) for expression and functional analyses; expressed in transfected cells; host or cells: COS-7. Conditions: COS-7 cells transfected with SNORF44. Format: cell-based. On the procedure:
(§3) A typical protocol for the DEAE-dextran method as applied to COS-7 and HEK293 cells is described as follows. Cells to be used for transfection are split 24 hours prior to the transfection to provide flasks which are 70-80% confluent at the time of transfection. Briefly, 8 μg of receptor DNA plus 8 μg of any additional DNA needed (e.g. Gα protein expression vector, reporter construct, antibiotic resistance marker, mock vector, etc.) are added to 9 ml of complete DMEM plus DEAE-dextran mixture (10 mg/ml in PBS). Cells plated into a T225 flask (sub-confluent) are washed once with PBS and the DNA mixture is added to each flask. The cells are allowed to incubate for 30 minutes at 37° C., 5% CO2. Following the incubation, 36 ml of complete DMEM with 80 μM chloroquine is added to each flask and allowed to incubate an additional 3 hours. The medium is then aspirated and 24 ml of complete medium containing 10% DMSO for exactly 2 minutes and then aspirated. The cells are then washed 2 times with PBS and 30 ml of complete DMEM added to each flask. The cells are then allowed to incubate over night. The next day the cells are harvested by trypsinization and reseeded into 96 well plates.
Cells expressing the receptor of interest are plated into clear, flat-bottom, black-walled 96-well plates (Costar) at a density of 80,000-150,000 cells per well and allowed to incubate for 48 hr at 5% CO2, 37° C. The growth medium is aspirated and 100 μL of loading medium containing Fluo-3 dye is added to each well. […]
(§4) The compounds of interest are diluted in wash buffer (Hank's BSS (without phenol red), 20 mM HEPES, 2.5 mM probenecid) to a 4× final concentration and aliquoted into a clear v-bottom plate (Nunc). […] Compounds are added to the cell plates and responses are measured using the FLIPR™ instrument. The data are then collected and analyzed using the FLIPR™ software and Graphpad Prism. […]

Test [4] has as its target T1, hSNORF44. The test can be described thus: Inositol phosphate (IP) release in transfected COS-7 cells. Format: cell-based. On the set-up: The entire coding region was then amplified by PCR from human spinal cord cDNA and subcloned into pcDNA3.1(−) for expression and functional analyses; expressed in transfected cells; host or cells: COS-7. The following applies: hSNORF44-transfected COS-7 cells. The protocol:
as §3, with “The medium is then aspirated and 24 ml of complete medium containing 10% DMSO for exactly 2 minutes and then aspirated. The cells are then washed 2 times with PBS and 30 ml of complete DMEM added to each flask. The cells are then allowed to incubate over night. The next day the cells are harvested by trypsinization and reseeded into 96 well plates.” left out
Human SNORF44 receptor-mediated activation of the inositol phosphate (IP) second messenger pathways were assessed by radiometric measurement of IP products.
For example, in a 96 well microplate format assay, COS-7 cells expressing the receptor of interest were plated at a density of 70,000 cells per well and allowed to incubate for 24 hours. […] 200 μL of scintillation cocktail was added to each well, and the radioactivity was determined by liquid scintillation counting.

Test [5] has as its system hSNORF44. The test can be described thus: Intracellular Ca2+ release (FLIPR) in transiently transfected COS-7 cells. Format: cell-based, human. Conditions: vector-transfected cells (so in the source); data not shown. On the procedure: as §3, with “The cells are then washed 2 times with PBS and 30 ml of complete DMEM added to each flask. The cells are then allowed to incubate over night. The next day the cells are harvested by trypsinization and reseeded into 96 well plates.” left out
as §4

Test [6] has as its target MC3 (Homo sapiens, UniProt P41968). The following applies: Schioth et al., 1996; cited from earlier work.
Test [7] deals with T2, human SNORF44 receptor (human, UniProt Q96P65 1-431).
T2 sequence: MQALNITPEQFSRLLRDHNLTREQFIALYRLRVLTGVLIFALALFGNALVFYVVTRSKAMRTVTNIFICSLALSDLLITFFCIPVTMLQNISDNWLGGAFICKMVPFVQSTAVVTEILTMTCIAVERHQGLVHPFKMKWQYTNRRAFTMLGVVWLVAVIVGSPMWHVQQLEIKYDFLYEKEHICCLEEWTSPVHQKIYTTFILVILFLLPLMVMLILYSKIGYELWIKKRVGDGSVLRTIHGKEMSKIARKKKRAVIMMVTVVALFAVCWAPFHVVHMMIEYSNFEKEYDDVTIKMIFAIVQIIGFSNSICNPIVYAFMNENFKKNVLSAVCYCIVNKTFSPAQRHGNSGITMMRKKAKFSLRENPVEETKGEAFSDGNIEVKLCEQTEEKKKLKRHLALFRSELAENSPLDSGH
Kind of test: cell-based or functional assay.

Sequence of MC3 (P41968 whole entry): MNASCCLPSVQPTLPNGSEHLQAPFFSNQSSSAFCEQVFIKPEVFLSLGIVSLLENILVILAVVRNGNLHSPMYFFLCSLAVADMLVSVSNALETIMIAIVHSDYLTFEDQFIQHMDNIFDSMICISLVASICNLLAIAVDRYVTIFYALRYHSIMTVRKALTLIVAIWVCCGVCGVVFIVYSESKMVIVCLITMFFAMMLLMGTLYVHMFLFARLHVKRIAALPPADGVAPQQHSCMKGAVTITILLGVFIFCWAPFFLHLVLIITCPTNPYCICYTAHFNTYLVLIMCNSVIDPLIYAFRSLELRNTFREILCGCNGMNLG

On to H-MGHFRF-NH2 [Peptide 2, MGHFRF-NH2], for which, in test [1], the “response in control oocytes” value is “not in control oocytes”. The “current amplitude (Ca2+-dependent Cl- current)” value (“current amplitude” below) in test [2] stood at 241±65 nA. The “release of intracellular Ca2+ as measured by FLIPR” value (shortened to “release of intracellular Ca2+”) in test [3] was “stimulated release of intracellular Ca^2+”.

H-YGGHFRW-NH2 [Peptide 3, YGGHFRW-NH2]: the “response in control oocytes” value in test [1] is reported as “not in control oocytes”. The “current amplitude” value in test [2] is 250±46 nA. For the same molecule, in test [3], the “release of intracellular Ca2+” value is reported as “stimulated release of intracellular Ca^2+”.

For the molecule H-YSMEHFRW-NH2 [Peptide 1], the “response in control oocytes” value in test [1] is given as “no response; also recorded: does not respond”. In test [2], the “current amplitude” value is given as 1036±306 nA. In addition, the “release of intracellular Ca2+” value in test [3] was “concentration-dependent release of intracellular Ca^2+”. The “release of IP second messengers, fold above basal” value in test [4] was “approximately 10 fold”.

For the molecule “NPFF (FLFQPQRF; ends and bridges not checked; UniProt O15130 69-76, looked up) [reference compound]”, the “effect on intracellular Ca2+ release” value in test [5] was “neither NPFF nor NPY (ligands activating the most closely related GPCRs) had any significant effect”.

NPY [reference compound]: the “effect on intracellular Ca2+ release” value in test [5] is listed as “neither NPFF nor NPY (ligands activating the most closely related GPCRs) had any significant effect”.

For the molecule gamma melanocortin [γ-MSH], the “agonist activity at recombinant MC3 receptor” value in test [6] is “agonist”.

In the case of YSMEHFRW-NH2 [Peptide 1], in test [7], the “EC50, release of IP second messengers, COS-7 cells” value (“EC50, release” for short) came out at 1210 nM and the “release of IP second messengers, fold above basal, COS-7 cells” value is around 10 fold.

YGGHFRW-NH2 [Peptide 3]: the “EC50, release” value in test [7] came out at 328 nM.

Take MGHFRF-NH2 [Peptide 2]: in test [7], the “EC50, release” value is 294 nM.
